Test results as given in PMC4767141, “Discovery of Potent, Orally Bioavailable, Small-Molecule Inhibitors of WNT Signaling from a Cell-Based Pathway Screen” (Journal of Medicinal Chemistry, 2015).

What was measured:
PHKGAMMA2 = molecular target: T1, PHKGAMMA2 (Homo sapiens, UniProt P15735); test: Millipore kinase panel; type: biochemical; conditions: read-out: % Control
T1 construct: purchased Millipore KinaseProfiler (kinases); Cerep (receptors and ion channels)

5-HT3 (h) = molecular target: T2, 5-HT3 (h) (Homo sapiens, UniProt P46098); test: CEREP binding panel; conditions: antagonist radioligand, read-out: % Inhibition of Control Specific Binding
T2 construct: purchased Millipore KinaseProfiler (kinases); Cerep (receptors and ion channels)

RON = molecular target: T3, RON (Homo sapiens, UniProt Q04912); test: Millipore kinase panel; type: biochemical; conditions: read-out: % Control
T3 construct: purchased Millipore KinaseProfiler (kinases); Cerep (receptors and ion channels)

PRKAA1 = molecular target: T4, PRKAA1 (Homo sapiens, UniProt Q13131); test: Millipore kinase panel; type: biochemical; conditions: read-out: % Control
T4 construct: purchased Millipore KinaseProfiler (kinases); Cerep (receptors and ion channels)

TEC ACTIVATED = molecular target: T5, TEC ACTIVATED (Homo sapiens, UniProt P42680); test: Millipore kinase panel; type: biochemical; conditions: read-out: % Control
T5 construct: purchased Millipore KinaseProfiler (kinases); Cerep (receptors and ion channels)

EPHB4 = molecular target: T6, EPHB4 (Homo sapiens, UniProt P54760); test: Millipore kinase panel; type: biochemical; conditions: read-out: % Control
T6 construct: purchased Millipore KinaseProfiler (kinases); Cerep (receptors and ion channels)

MNK2 = molecular target: T7, MNK2 (Homo sapiens, UniProt Q9HBH9); test: Millipore kinase panel; type: biochemical; conditions: read-out: % Control
T7 construct: purchased Millipore KinaseProfiler (kinases); Cerep (receptors and ion channels)

ERBB4 = molecular target: T8, ERBB4 (Homo sapiens, UniProt Q15303); test: Millipore kinase panel; type: biochemical; conditions: read-out: % Control
T8 construct: purchased Millipore KinaseProfiler (kinases); Cerep (receptors and ion channels)

BRK = molecular target: T9, BRK (Homo sapiens, UniProt Q13882); test: Millipore kinase panel; type: biochemical; conditions: read-out: % Control
T9 construct: purchased Millipore KinaseProfiler (kinases); Cerep (receptors and ion channels)

FGFR3 = molecular target: T10, FGFR3 (Homo sapiens, UniProt P22607); test: Millipore kinase panel; type: biochemical; conditions: read-out: % Control
T10 construct: purchased Millipore KinaseProfiler (kinases); Cerep (receptors and ion channels)

PAK6 = molecular target: T11, PAK6 (Homo sapiens, UniProt Q9NQU5); test: Millipore kinase panel; type: biochemical; conditions: read-out: % Control
T11 construct: purchased Millipore KinaseProfiler (kinases); Cerep (receptors and ion channels)

TRKA = molecular target: T12, TRKA (Homo sapiens, UniProt P04629); test: Millipore kinase panel; type: biochemical; conditions: read-out: % Control
T12 construct: purchased Millipore KinaseProfiler (kinases); Cerep (receptors and ion channels)

LKB1 = molecular target: T13, LKB1 (Homo sapiens, UniProt Q15831); test: Millipore kinase panel; type: biochemical; conditions: read-out: % Control
T13 construct: purchased Millipore KinaseProfiler (kinases); Cerep (receptors and ion channels)

β1 (h) = molecular target: T14, β1 (h) (Homo sapiens, UniProt P08588); test: CEREP binding panel; conditions: agonist radioligand, read-out: % Inhibition of Control Specific Binding
T14 construct: purchased Millipore KinaseProfiler (kinases); Cerep (receptors and ion channels)

PKD2 = molecular target: T15, PKD2 (Homo sapiens, UniProt Q9BZL6); test: Millipore kinase panel; type: biochemical; conditions: read-out: % Control
T15 construct: purchased Millipore KinaseProfiler (kinases); Cerep (receptors and ion channels)

TIE2 = molecular target: T16, TIE2 (Homo sapiens, UniProt Q02763); test: Millipore kinase panel; type: biochemical; conditions: read-out: % Control
T16 construct: purchased Millipore KinaseProfiler (kinases); Cerep (receptors and ion channels)

PKCALPHA = molecular target: T17, PKCALPHA (Homo sapiens, UniProt P17252); test: Millipore kinase panel; type: biochemical; conditions: read-out: % Control
T17 construct: purchased Millipore KinaseProfiler (kinases); Cerep (receptors and ion channels)

JAK3 = molecular target: T18, JAK3 (Homo sapiens, UniProt P52333); test: Millipore kinase panel; type: biochemical; conditions: read-out: % Control
T18 construct: purchased Millipore KinaseProfiler (kinases); Cerep (receptors and ion channels)

CHK2 = molecular target: T19, CHK2 (Homo sapiens, UniProt O96017); test: Millipore kinase panel; type: biochemical; conditions: read-out: % Control
T19 construct: purchased Millipore KinaseProfiler (kinases); Cerep (receptors and ion channels)

HASPIN = molecular target: T20, HASPIN (Homo sapiens, UniProt Q8TF76); test: Millipore kinase panel; type: biochemical; conditions: read-out: % Control
T20 construct: purchased Millipore KinaseProfiler (kinases); Cerep (receptors and ion channels)

CLK3 = molecular target: T21, CLK3 (Homo sapiens, UniProt P49761); test: Millipore kinase panel; type: biochemical; conditions: read-out: % Control
T21 construct: purchased Millipore KinaseProfiler (kinases); Cerep (receptors and ion channels)

CCK1 (CCKA) (h) = molecular target: T22, CCK1 (CCKA) (h) (Homo sapiens, UniProt P32238); test: CEREP binding panel; conditions: agonist radioligand, read-out: % Inhibition of Control Specific Binding
T22 construct: purchased Millipore KinaseProfiler (kinases); Cerep (receptors and ion channels)

LCK = molecular target: T23, LCK (Homo sapiens, UniProt P06239); test: Millipore kinase panel; type: biochemical; conditions: read-out: % Control
T23 construct: purchased Millipore

LOK = molecular target: T24, LOK (Homo sapiens, UniProt O94804); test: Millipore kinase panel; type: biochemical; conditions: read-out: % Control
T24 construct: purchased Millipore KinaseProfiler (kinases); Cerep (receptors and ion channels)

MRCKALPHA = molecular target: T25, MRCKALPHA (Homo sapiens, UniProt Q5VT25); test: Millipore kinase panel; type: biochemical; conditions: read-out: % Control
T25 construct: purchased Millipore KinaseProfiler (kinases); Cerep (receptors and ion channels)

IKKALPHA = molecular target: T26, IKKALPHA (Homo sapiens, UniProt O15111); test: Millipore kinase panel; type: biochemical; conditions: read-out: % Control
T26 construct: purchased Millipore KinaseProfiler (kinases); Cerep (receptors and ion channels)

ETA (h) = molecular target: T27, ETA (h) (Homo sapiens, UniProt P25101); test: CEREP binding panel; conditions: agonist radioligand, read-out: % Inhibition of Control Specific Binding
T27 construct: purchased Millipore KinaseProfiler (kinases); Cerep (receptors and ion channels)

ZIPK = molecular target: T28, ZIPK (Homo sapiens, UniProt O43293); test: Millipore kinase panel; type: biochemical; conditions: read-out: % Control
T28 construct: purchased Millipore KinaseProfiler (kinases); Cerep (receptors and ion channels)

μ (MOP) (h) = molecular target: T29, μ (MOP) (h) (Homo sapiens, UniProt P35372); test: CEREP binding panel; conditions: agonist radioligand, read-out: % Inhibition of Control Specific Binding
T29 construct: purchased Millipore KinaseProfiler (kinases); Cerep (receptors and ion channels)

PAK5 = molecular target: T30, PAK5 (Homo sapiens, UniProt Q9P286); test: Millipore kinase panel; type: biochemical; conditions: read-out: % Control
T30 construct: purchased Millipore KinaseProfiler (kinases); Cerep (receptors and ion channels)

ULK3 = molecular target: T31, ULK3 (Homo sapiens, UniProt Q6PHR2); test: Millipore kinase panel; type: biochemical; conditions: read-out: % Control
T31 construct: purchased Millipore KinaseProfiler (kinases); Cerep (receptors and ion channels)

CXCR2 (IL-8B) (h) = molecular target: T32, CXCR2 (IL-8B) (h) (Homo sapiens, UniProt P25025); test: CEREP binding panel; conditions: agonist radioligand, read-out: % Inhibition of Control Specific Binding
T32 construct: purchased Millipore KinaseProfiler (kinases); Cerep (receptors and ion channels)

[1] = test system: Ca2+ channel (L, verapamil site) (phenylalkylamine); test: CEREP binding panel; conditions: 10 μM, antagonist radioligand
SAPK3 = molecular target: T33, SAPK3 (Homo sapiens, UniProt P53778); test: Millipore kinase panel; type: biochemical; conditions: read-out: % Control
T33 construct: purchased Millipore KinaseProfiler (kinases); Cerep (receptors and ion channels)

EPHB1 = molecular target: T34, EPHB1 (Homo sapiens, UniProt P54762); test: Millipore kinase panel; type: biochemical; conditions: read-out: % Control
T34 construct: purchased Millipore KinaseProfiler (kinases); Cerep (receptors and ion channels)

PLK1 = molecular target: T35, PLK1 (Homo sapiens, UniProt P53350); test: Millipore kinase panel; type: biochemical; conditions: read-out: % Control
T35 construct: purchased Millipore KinaseProfiler (kinases); Cerep (receptors and ion channels)

GABA (non-selective) = test: CEREP binding panel; conditions: 10 μM, agonist radioligand
GCK = molecular target: T36, GCK (Homo sapiens, UniProt Q12851); test: Millipore kinase panel; type: biochemical; conditions: read-out: % Control
T36 construct: purchased Millipore KinaseProfiler (kinases); Cerep (receptors and ion channels)

5-HT6 (h) = molecular target: T37, 5-HT6 (h) (Homo sapiens, UniProt P50406); test: CEREP binding panel; conditions: agonist radioligand, read-out: % Inhibition of Control Specific Binding
T37 construct: purchased Millipore KinaseProfiler (kinases); Cerep (receptors and ion channels)

MINK = molecular target: T38, MINK (Homo sapiens, UniProt Q8N4C8); test: Millipore kinase panel; type: biochemical; conditions: read-out: % Control
T38 construct: purchased Millipore KinaseProfiler (kinases); Cerep (receptors and ion channels)

GRK7 = molecular target: T39, GRK7 (Homo sapiens, UniProt Q8WTQ7); test: Millipore kinase panel; type: biochemical; conditions: read-out: % Control
T39 construct: purchased Millipore KinaseProfiler (kinases); Cerep (receptors and ion channels)

Na+ channel (site 2) = test: CEREP binding panel; conditions: 10 μM, antagonist radioligand
RSK4 = molecular target: T40, RSK4 (Homo sapiens, UniProt Q9UK32); test: Millipore kinase panel; type: biochemical; conditions: read-out: % Control
T40 construct: purchased Millipore KinaseProfiler (kinases); Cerep (receptors and ion channels)

MELK = molecular target: T41, MELK (Homo sapiens, UniProt Q14680); test: Millipore kinase panel; type: biochemical; conditions: read-out: % Control
T41 construct: purchased Millipore KinaseProfiler (kinases); Cerep (receptors and ion channels)

T31 sequence (Q6PHR2 whole entry): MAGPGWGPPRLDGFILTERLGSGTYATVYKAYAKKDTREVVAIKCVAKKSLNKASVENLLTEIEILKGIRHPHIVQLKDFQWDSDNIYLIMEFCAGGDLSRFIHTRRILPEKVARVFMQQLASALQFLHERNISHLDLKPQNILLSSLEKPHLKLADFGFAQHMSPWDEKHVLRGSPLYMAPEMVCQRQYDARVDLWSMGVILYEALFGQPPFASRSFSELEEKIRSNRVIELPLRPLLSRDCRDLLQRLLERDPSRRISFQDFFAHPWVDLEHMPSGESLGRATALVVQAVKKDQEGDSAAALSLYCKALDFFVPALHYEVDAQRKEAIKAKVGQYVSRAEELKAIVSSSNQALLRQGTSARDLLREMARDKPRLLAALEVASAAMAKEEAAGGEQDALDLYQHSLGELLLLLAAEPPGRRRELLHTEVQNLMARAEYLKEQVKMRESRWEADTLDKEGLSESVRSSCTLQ
T33 sequence (P53778 whole entry): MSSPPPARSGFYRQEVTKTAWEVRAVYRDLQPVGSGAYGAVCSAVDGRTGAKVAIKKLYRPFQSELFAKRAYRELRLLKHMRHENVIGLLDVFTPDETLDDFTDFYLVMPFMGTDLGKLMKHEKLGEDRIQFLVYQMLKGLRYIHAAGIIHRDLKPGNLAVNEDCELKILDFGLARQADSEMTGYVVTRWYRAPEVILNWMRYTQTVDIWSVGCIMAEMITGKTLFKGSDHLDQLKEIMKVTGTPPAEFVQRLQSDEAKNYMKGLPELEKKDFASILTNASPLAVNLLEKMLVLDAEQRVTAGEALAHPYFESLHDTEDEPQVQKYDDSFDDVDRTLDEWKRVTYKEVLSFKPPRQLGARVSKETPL
T6 sequence (P54760 16-987): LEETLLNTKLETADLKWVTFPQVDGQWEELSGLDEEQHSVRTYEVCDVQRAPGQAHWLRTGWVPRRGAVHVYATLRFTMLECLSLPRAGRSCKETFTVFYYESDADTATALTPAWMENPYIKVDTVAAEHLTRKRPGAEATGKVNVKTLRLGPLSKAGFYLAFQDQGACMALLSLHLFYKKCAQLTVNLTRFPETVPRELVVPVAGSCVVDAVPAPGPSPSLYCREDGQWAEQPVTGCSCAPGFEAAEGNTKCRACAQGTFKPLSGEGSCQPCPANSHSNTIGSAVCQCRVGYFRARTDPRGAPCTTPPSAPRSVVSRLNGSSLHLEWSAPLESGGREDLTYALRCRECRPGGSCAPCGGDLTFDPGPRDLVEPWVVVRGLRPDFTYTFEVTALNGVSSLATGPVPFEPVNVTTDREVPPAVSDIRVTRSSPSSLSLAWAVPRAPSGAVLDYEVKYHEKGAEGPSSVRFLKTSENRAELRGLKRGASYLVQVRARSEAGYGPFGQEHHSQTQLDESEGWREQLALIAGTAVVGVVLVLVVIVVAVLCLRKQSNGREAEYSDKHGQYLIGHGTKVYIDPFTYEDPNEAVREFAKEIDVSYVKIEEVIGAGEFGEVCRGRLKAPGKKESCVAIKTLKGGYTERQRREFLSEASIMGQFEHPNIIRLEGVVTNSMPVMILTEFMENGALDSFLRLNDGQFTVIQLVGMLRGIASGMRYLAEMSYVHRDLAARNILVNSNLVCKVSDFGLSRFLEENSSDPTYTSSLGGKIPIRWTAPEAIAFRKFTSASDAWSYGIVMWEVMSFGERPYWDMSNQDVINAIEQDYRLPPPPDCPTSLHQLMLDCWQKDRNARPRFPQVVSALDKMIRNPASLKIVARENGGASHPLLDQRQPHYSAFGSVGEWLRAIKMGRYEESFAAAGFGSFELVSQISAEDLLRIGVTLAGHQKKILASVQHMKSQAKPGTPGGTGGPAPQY
T3 sequence (Q04912 25-1400): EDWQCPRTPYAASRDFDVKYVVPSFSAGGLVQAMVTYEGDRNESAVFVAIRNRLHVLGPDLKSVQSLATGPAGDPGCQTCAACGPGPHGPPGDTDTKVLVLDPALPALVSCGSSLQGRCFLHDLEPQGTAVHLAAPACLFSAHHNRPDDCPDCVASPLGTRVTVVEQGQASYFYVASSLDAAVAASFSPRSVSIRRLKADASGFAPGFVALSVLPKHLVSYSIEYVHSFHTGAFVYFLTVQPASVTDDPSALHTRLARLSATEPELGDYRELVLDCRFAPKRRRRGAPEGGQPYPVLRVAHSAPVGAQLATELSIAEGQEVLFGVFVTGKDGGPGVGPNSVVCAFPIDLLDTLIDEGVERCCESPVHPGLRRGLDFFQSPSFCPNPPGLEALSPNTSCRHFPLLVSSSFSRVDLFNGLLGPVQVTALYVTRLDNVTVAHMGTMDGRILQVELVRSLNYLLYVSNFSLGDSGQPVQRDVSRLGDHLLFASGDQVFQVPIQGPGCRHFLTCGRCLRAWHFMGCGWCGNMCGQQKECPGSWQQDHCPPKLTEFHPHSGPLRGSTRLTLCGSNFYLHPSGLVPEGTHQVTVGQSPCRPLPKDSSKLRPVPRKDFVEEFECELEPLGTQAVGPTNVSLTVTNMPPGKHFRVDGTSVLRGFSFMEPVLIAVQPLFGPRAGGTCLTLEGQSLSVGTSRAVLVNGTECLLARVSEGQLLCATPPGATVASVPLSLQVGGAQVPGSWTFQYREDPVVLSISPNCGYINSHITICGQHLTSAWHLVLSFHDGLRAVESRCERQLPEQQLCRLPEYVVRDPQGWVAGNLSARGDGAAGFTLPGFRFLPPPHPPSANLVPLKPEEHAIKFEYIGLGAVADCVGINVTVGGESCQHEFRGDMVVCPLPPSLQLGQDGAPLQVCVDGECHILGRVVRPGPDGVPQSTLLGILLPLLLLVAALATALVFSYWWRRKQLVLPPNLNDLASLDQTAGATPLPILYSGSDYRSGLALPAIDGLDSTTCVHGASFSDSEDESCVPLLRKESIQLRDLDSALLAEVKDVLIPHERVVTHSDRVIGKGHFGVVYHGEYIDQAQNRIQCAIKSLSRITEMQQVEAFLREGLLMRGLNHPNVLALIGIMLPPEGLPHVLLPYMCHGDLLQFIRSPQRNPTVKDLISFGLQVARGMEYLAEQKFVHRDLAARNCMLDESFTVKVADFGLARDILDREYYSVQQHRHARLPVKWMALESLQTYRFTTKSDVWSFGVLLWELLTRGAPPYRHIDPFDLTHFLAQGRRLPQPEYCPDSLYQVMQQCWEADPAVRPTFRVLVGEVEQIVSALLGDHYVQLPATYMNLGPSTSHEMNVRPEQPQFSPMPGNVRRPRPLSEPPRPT
T39 sequence (Q8WTQ7 whole entry): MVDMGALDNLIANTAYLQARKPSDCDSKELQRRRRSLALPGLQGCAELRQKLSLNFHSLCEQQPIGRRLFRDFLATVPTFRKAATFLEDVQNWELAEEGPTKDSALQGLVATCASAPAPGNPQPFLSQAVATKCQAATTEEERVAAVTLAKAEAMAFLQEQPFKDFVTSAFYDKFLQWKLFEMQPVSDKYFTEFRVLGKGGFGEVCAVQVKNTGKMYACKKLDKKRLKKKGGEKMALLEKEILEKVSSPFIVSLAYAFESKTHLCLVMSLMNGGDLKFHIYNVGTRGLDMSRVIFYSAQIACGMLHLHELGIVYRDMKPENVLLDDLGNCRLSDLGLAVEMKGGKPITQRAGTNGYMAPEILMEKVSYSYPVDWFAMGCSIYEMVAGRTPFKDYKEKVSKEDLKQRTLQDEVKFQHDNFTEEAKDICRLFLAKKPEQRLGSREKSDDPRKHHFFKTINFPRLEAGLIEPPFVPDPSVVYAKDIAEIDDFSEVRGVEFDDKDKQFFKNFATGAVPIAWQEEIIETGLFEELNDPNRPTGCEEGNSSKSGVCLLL
T37 sequence (P50406 whole entry): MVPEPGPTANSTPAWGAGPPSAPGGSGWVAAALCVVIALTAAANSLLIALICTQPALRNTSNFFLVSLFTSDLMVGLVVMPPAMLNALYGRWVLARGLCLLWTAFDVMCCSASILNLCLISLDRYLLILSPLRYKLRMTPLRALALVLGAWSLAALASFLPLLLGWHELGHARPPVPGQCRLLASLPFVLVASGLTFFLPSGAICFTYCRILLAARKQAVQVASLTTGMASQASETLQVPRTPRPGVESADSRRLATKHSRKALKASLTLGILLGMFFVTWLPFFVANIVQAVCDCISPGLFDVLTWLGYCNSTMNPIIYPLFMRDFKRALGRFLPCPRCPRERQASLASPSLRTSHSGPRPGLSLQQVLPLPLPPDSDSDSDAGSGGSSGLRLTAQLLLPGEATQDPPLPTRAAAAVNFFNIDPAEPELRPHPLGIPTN
T20 sequence (Q8TF76 whole entry): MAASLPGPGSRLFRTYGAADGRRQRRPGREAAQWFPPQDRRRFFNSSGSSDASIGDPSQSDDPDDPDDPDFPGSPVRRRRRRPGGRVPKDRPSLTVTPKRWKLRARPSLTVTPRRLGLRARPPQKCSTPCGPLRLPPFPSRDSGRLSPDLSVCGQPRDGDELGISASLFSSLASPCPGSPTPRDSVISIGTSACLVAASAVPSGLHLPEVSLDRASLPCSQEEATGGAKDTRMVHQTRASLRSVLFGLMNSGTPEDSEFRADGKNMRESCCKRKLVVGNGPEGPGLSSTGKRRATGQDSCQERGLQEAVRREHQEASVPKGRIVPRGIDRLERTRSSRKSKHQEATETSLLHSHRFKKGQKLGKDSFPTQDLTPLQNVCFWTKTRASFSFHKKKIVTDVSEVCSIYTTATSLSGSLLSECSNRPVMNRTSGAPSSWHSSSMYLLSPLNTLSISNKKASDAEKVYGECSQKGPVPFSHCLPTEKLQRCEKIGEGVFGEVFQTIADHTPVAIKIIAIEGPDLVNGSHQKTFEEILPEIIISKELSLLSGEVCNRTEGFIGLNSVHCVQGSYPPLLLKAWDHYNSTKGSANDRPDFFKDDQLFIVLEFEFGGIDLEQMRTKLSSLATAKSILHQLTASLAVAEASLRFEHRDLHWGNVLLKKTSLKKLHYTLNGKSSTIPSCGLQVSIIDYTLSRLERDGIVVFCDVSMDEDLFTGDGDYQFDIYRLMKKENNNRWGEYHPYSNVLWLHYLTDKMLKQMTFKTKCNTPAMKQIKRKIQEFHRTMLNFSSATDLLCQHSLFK

Q: Which results are given for `O=C1NCCC12CCN(c1c(Cl)cncc1-c1ccc(N3CCOCC3)cc1)CC2` [Compound 44, 8-(3-Chloro-5-(4-morpholin-4-ylphenyl)pyridin-4-yl)-2,8-diazaspiro[4.5]decan-1-one]?
A: remaining activity at 1 µM (PHKGAMMA2): 10%; inhibition at 10 µM (5-HT3 (h)): -3%; remaining activity at 1 µM (RON): 13%; remaining activity at 1 µM (PRKAA1): 15%; remaining activity at 1 µM (TEC ACTIVATED): 4%; remaining activity at 1 µM (EPHB4): 4%; remaining activity at 1 µM (MNK2): 2%; remaining activity at 1 µM (ERBB4): -9%; remaining activity at 1 µM (BRK): 2%; remaining activity at 1 µM (FGFR3): 10%; remaining activity at 1 µM (PAK6): 13%; remaining activity at 1 µM (TRKA): 17%; remaining activity at 1 µM (LKB1): 7%; inhibition at 10 µM (β1 (h)): 9%; remaining activity at 1 µM (PKD2): 0%; remaining activity at 1 µM (TIE2): 19%; remaining activity at 1 µM (PKCALPHA): -5%; remaining activity at 1 µM (JAK3): -4%; remaining activity at 1 µM (CHK2): 15%; remaining activity at 1 µM (HASPIN): 21%; remaining activity at 1 µM (CLK3): 0%; inhibition at 10 µM (CCK1 (CCKA) (h)): -16%; remaining activity at 1 µM (LCK): 13%; remaining activity at 1 µM (LOK): -1%; remaining activity at 1 µM (MRCKALPHA): 11%; remaining activity at 1 µM (IKKALPHA): 22%; inhibition at 10 µM (ETA (h)): -3%; remaining activity at 1 µM (ZIPK): -10%; inhibition at 10 µM (μ (MOP) (h)): 9%; remaining activity at 1 µM (PAK5): 8%; remaining activity at 1 µM (ULK3): -1%; inhibition at 10 µM (CXCR2 (IL-8B) (h)): -2%; % Inhibition of Control Specific Binding [1]: 9%; remaining activity at 1 µM (SAPK3): 35%; remaining activity at 1 µM (EPHB1): -1%; remaining activity at 1 µM (PLK1): 14%; % Inhibition of Control Specific Binding (GABA (non-selective)): 10%; remaining activity at 1 µM (GCK): -9%; inhibition at 10 µM (5-HT6 (h)): -5%; remaining activity at 1 µM (MINK): 7%; remaining activity at 1 µM (GRK7): -2%; % Inhibition of Control Specific Binding (Na+ channel (site 2)): 15%; remaining activity at 1 µM (RSK4): 2%; remaining activity at 1 µM (MELK): -19%
